Reference: article PMC7822874, “Chemoprotective antimalarials identified through quantitative high-throughput screening of Plasmodium blood and liver stage parasites” (Scientific Reports, 2021)
Like-named read-outs stand apart in the source and are kept apart here.

Tested on: Plasmodium falciparum Dd2 asexual blood stage parasites
Assay: microbe, parasite or virus in culture
Parameters: species or system Plasmodium falciparum Dd2 in human erythrocytes; single determination (one 11-point concentration-response curve)
Conditions: Plasmodium falciparum, DD2, Erythrocyte, 72 h

Compound	AC50 (read-out: AC50) [µM]	AC50 [µM]
Cc1ccccc1OCCSc1nc2ccc(NC(=O)c3ccccc3)cc2s1 [NCGC00118500-01]	15	
Cc1ccccc1OCCSc1nc2ccc(NC(=O)c3cccs3)cc2s1 [NCGC00118502-01]	5.31	
COc1cc(C)ccc1OCCSc1nc2ccc(NC(=O)c3ccc(F)cc3)cc2s1 [NCGC00118562-01]	10.6	
COc1cc(C)ccc1OCCSc1nc2ccc(NC(=O)c3cccs3)cc2s1 [NCGC00118564-01]	13.3	
COc1ccc(OCC(=O)NCC2(N3CCN(C)CC3)CCCCC2)cc1 [NCGC00118575-01]	1.88	
Cc1cccc(OCC(=O)NCC2(N3CCN(C)CC3)CCCCC2)c1C [NCGC00118605-01]	6.68	
CN(C(=O)CSc1nc2ccc(NC(=O)CCc3ccccc3)cc2s1)c1ccccc1 [NCGC00118644-01]	13.3	
Cc1cccc(OC(C)C(=O)NCC2(N(C)C)CCCCC2)c1C (centres unmarked) [NCGC00118727-01]		8.41
Cc1ccc(OCCSc2nc3ccc(NC(=O)c4cccs4)cc3s2)cc1 [NCGC00118830-01]	2.99	
Cc1cccc(OCCSc2nc3ccc(NC(=O)c4cccs4)cc3s2)c1 [NCGC00118842-01]	9.44	
Cc1ccc(N(Cc2cccs2)C(=O)C(C)Oc2ccc(Cl)c(C)c2)cc1 (centres unmarked) [NCGC00119071-01]	7.5	
CCCC(O)c1nc2ccccc2n1CCCCOc1ccc(OC)cc1 (centres unmarked) [NCGC00119455-01]	15	
Cc1ccc(-c2noc(-c3ccccc3NC(=O)C3CC(=O)N(c4ccc(C)cc4)C3)n2)cc1 (centres unmarked) [NCGC00119552-01]	4.22	
CCc1c(C)c2ccc(O)c(CN3CCN(c4ccccc4)CC3)c2oc1=O [NCGC00119657-01]	2.37	
COc1ccccc1NC(=O)N1CC(=O)Nc2sc3c(c2C1c1ccccc1)CCCC3 (centres unmarked) [NCGC00120109-01]	15	
CCOc1ccc(NC(=O)c2cnn3c2NC(c2cccc(OC)c2)=CC3c2ccccc2)cc1 (centres unmarked) [NCGC00121753-01]	4.73	
COc1cccc(-c2cc(C(=O)Nc3cc(Cl)ccc3O)on2)c1 [NCGC00121773-01]	4.73	
COc1ccc(-c2cn3c(n2)sc2cc(C(=O)NCCCN4CCCCC4)ccc23)cc1 [NCGC00121823-01]	4.73	
CCCN1CCN(CCCNC(=O)c2ccc3c(c2)sc2nc(-c4ccc(OC)cc4)cn23)CC1 [NCGC00121829-01]	4.73	
COc1ccc2c(CNCc3ccccc3OC)c(C(=O)O)n(Cc3ccc(F)cc3Cl)c2c1 [NCGC00122363-01]	15	
COc1ccc(-c2nc3c(c(SCc4ccc(Br)cc4)n2)Cc2c(CO)cnc(C)c2O3)cc1 [NCGC00122580-01]	0.0668	
CCCCn1cc([S+](=O)([O-])c2ccc(Cl)cc2)c(=O)c2cc(F)c(N3CCCCC3)cc21 [NCGC00123723-01]	15	
CC(NC(=O)Cn1c(-c2cccs2)cc2cc(F)ccc21)c1ccccc1 (centres unmarked) [NCGC00123911-01]	2.66	
COc1ccc(Nc2cc(C)c3cc(NC(=O)c4cc(OC)cc(OC)c4)ccc3n2)cc1 [NCGC00124306-01]	0.75	
COc1ccc(Nc2cc(C)c3cc(NC(=O)Cc4c(F)cccc4Cl)ccc3n2)cc1 [NCGC00124312-01]	5.31	
Cc1cc(Nc2cccc(C(F)(F)F)c2)nc2ccc(NC(=O)c3cncc(Br)c3)cc12 [NCGC00124348-01]	2.37	

Compound	AC50 (read-out: AC50) [µM]	AC50 [µM]
CCOc1cc(C(=O)Nc2ccc3nc(Nc4cccc(Cl)c4)cc(C)c3c2)cc(OCC)c1OCC [NCGC00124408-01]	1.88	
CCN1CCN(C(=O)c2c(C)nn(-c3ccc(F)cc3)c2-n2cccc2)CC1 [NCGC00125054-01]	9.44	
CCc1c(C)c2ccc3c(c2oc1=O)CN(Cc1ccccc1)CO3 [NCGC00125086-01]	2.11	
Cc1c(Cl)cccc1Nc1nn2c(=O)c3ccc(C(=O)NCCc4ccccc4)cc3nc2s1 [NCGC00125565-01]	7.5	
Cc1c(Cl)cccc1Nc1nn2c(=O)c3ccc(C(=O)N(C)Cc4ccccc4)cc3nc2s1 [NCGC00125571-01]	16.8	
CC1=C(C(=O)Nc2ccccc2)C(c2cc(Br)ccc2F)n2ncc(C(=O)Nc3ccccc3)c2N1 (centres unmarked) [NCGC00126266-01]	1.68	
Cc1ccccc1NC(=O)Nc1ccc2nc(N3CCN(C)CC3)cc(C)c2c1 [NCGC00126513-01]	1.5	
COc1ccccc1N1CCN(CCCNC(=O)c2cnn(-c3ccccc3Cl)c2C2CCN(C(=O)OC(C)(C)C)CC2)CC1 [NCGC00126752-01]	2.37	
COc1ccccc1CN1CCC(CNC(=O)c2cnn(-c3ccc(Cl)cc3)c2C2CCN(C(=O)OC(C)(C)C)CC2)CC1 [NCGC00126796-01]	2.66	
CCOC(=O)c1c(C)oc2nc(C)nc(Nc3ccc(CC)cc3)c12 [NCGC00126813-01]	7.5	
COc1ccccc1CN1CCC(CNC(=O)c2cnn(-c3cccc(Cl)c3)c2C2CCN(C(=O)OC(C)(C)C)CC2)CC1 [NCGC00126858-01]	7.5	
COc1ccccc1N1CCN(CCCNC(=O)c2cnn(-c3cccc(Cl)c3)c2C2CCN(C(=O)OC(C)(C)C)CC2)CC1 [NCGC00126882-01]	2.11	
Cc1ccc(CN2CCC(CNC(=O)c3cnn(-c4ccc(C)cc4)c3C3CCN(C(=O)OC(C)(C)C)CC3)CC2)cc1 [NCGC00126945-01]	8.41	
Cc1ccc(-n2ncc(C(=O)N3CCN(c4cc(Cl)ccc4C)CC3)c2C2CCN(C(=O)OC(C)(C)C)CC2)cc1 [NCGC00126953-01]	8.41	
Fc1ccc(N2CCN(Cc3cccn3-c3nnc(N4CCN(C5CCCCC5)CC4)s3)CC2)cc1 [NCGC00127052-01]	11.9	
Cc1cccc(C)c1-n1ncc(C(=O)NCCCN2CCC(C)CC2)c1C1CCN(C(=O)OC(C)(C)C)CC1 [NCGC00127064-01]	15	
CC(C)(C)OC(=O)N1CCC(c2c(C(=O)NCCN3CCc4ccccc4C3)cnn2-c2ccc(F)cc2F)CC1 [NCGC00127087-01]	5.31	
Cc1cc(C)c(CN2C(=O)c3ccccc3[S+](=O)([O-])c3ccc(C(=O)OCC4CCCO4)cc32)c(C)c1 (centres unmarked) [NCGC00127808-01]	6.68	
COc1cc(NC(=O)CSc2nc(-c3ccccc3)no2)cc(OC)c1 [NCGC00127876-01]	2.37	
O=C(CSc1nc(-c2ccccc2)no1)N1CCN(c2ccc(F)cc2)CC1 [NCGC00127880-01]	4.22	
COc1ccccc1N1CCN(C(=O)CSc2nc(-c3ccc(C(C)C)cc3)no2)CC1 [NCGC00127900-01]	0.376	
CCN(C(=O)CSc1nc(-c2ccc(C(C)C)cc2)no1)c1cccc(C)c1 [NCGC00127902-01]	1.06	
CCN(C(=O)CSc1nc(-c2ccc(C(C)C)cc2)no1)c1ccccc1 [NCGC00127904-01]	0.944	
CC1CCN(C(=O)CSc2nc(-c3ccc(C(C)C)cc3)no2)CC1 [NCGC00127906-01]	1.19	
COc1cc(NC(=O)CSc2nc(-c3ccc(C(C)C)cc3)no2)cc(OC)c1 [NCGC00127914-01]	0.841	
CC(C)c1ccc(-c2noc(SCC(=O)N(C)c3ccc(F)cc3)n2)cc1 [NCGC00127932-01]	0.944	

Compound	AC50 (read-out: AC50) [µM]	AC50 [µM]
CC(C)c1ccc(-c2noc(SCC(=O)N3CCN(c4ccc(F)cc4)CC3)n2)cc1 [NCGC00127934-01]	0.668	
COc1ccc(N2CCN(C(=O)CSc3nc(-c4ccc(C(C)C)cc4)no3)CC2)cc1 [NCGC00127936-01]	0.531	
CCc1cccc(-n2c(=O)c3cccnc3n2CC(=O)Nc2ccc(F)c(C)c2)c1 [NCGC00128424-01]	2.66	
CCc1cccc(NC(c2nnc(-c3ccccc3)o2)c2ccc(F)cc2Cl)c1 (centres unmarked) [NCGC00129460-01]	6.68	
COCCc1nn2c(=O)cc(COC(=O)C(c3ccccc3)c3ccccc3)nc2s1 [NCGC00129785-01]	2.66	
Cc1oc(-c2ccc(Cl)cc2)nc1Cn1c(=O)cc(-c2ccccc2)c2c(C)nn(C)c21 [NCGC00130157-01]	9.44	
CCc1ccc(-c2nn(CC(=O)NC3CCCCC3)c3c2cnc2ccc(OC)cc23)cc1 [NCGC00130391-01]	9.44	
CCCc1nn2c(=O)cc(COC(=O)c3cccc(NC(=O)COc4ccccc4C)c3)nc2s1 [NCGC00130805-01]	13.3	
CCOC(=O)c1ccc2c(c1)N(CC(=O)N(C)c1ccccc1)C(=O)c1ccccc1S2 [NCGC00132027-01]	10.6	
CCOC(=O)c1ccc2c(c1)N(C(CC)C(=O)Nc1ccccc1OC)C(=O)c1ccccc1S2 (centres unmarked) [NCGC00132065-01]	9.44	
Cc1ccc(C)c(N2CCN(C(=O)c3cc([S+](=O)([O-])N4CCCCCC4)cn3C)CC2)c1 [NCGC00132413-01]	10.6	
Cc1cc(C)c(/C=C/c2onc(C)c2[S+](=O)([O-])N2CCC(C(=O)Nc3ccc(Cl)c(C(F)(F)F)c3)CC2)c(C)c1 [NCGC00132732-01]	10.6	
COc1ccccc1Cc1nc2ccccc2nc1SCC(=O)NCc1ccccc1Cl [NCGC00133705-01]	2.11	
COc1cccc(-c2nn3c(=O)cc(CN4CCN([S+](=O)([O-])c5ccc(C)cc5)CC4)nc3s2)c1 [NCGC00134088-01]	8.41	
COc1ccc(-c2cc3ccc(O)c(CN4CCCC(C)C4)c3oc2=O)cc1 (centres unmarked) [NCGC00134281-01]	2.37	
CCOc1cc(C(=O)N2CCc3c([nH]c4ccccc34)C2c2ccccc2)cc(OCC)c1OCC (centres unmarked) [NCGC00134525-01]	7.5	
CCOC(=O)c1[nH]c(C)c(CCC(=O)N2CCN(c3cc(C)ccc3C)CC2)c1C [NCGC00134586-01]	1.33	
CCOc1cccc(C2c3[nH]c4ccccc4c3CCN2C(=O)CSCc2ccc(F)cc2)c1 (centres unmarked) [NCGC00134633-01]	15	
O=c1oc2c(CN3CCOCC3)c(O)ccc2cc1-c1ccccc1 [NCGC00135757-01]	9.44	
COc1ccc2nc(N(Cc3cccnc3)C(=O)CCc3ccccc3)sc2c1 [NCGC00136611-01]	6.68	
COc1ccc(-c2nc3sc(CCNC(=O)c4ccc(C(C)(C)C)cc4)c(C)n3n2)cc1 [NCGC00137079-01]	2.11	
CC(=O)C1=C(c2ccccc2)N(C(C)=O)n2c(nnc2C2CCCCC2)S1 [NCGC00137174-01]	4.22	
CC(=O)C1=C(c2ccc(Cl)cc2)N(C(C)=O)n2c(nnc2C2CCCCC2)S1 [NCGC00137192-01]	4.73	
CC(=O)C1=C(c2ccc(Br)cc2)N(C(C)=O)n2c(nnc2C2CCCCC2)S1 [NCGC00137196-01]	2.99	
CCC(=O)C1=C(c2ccccc2)N(C(=O)CC)n2c(nnc2-c2ccccc2)S1 [NCGC00137198-01]	5.96	
